Assay results from US5663331A, “Cephalosporin compounds” (Il-Dong Pharm. Co., Ltd., priority 1992, dated 1997).
Values after ≈ are worked out from the molar mass of the structure shown.

Legend:
Format in all cases: cell-based
[1] = tested on: Bacillus subtilis ATCC 6633; experiment: MIC, two-fold dilution method, Bacillus subtilis ATCC 6633; conditions: 10^6 CFU per ml, 37° C., 18 to 20 hours; for Antibacterial Activity (MIC): Muller Hinton Broth; for MIC: ATCC6633, Muller Hinton Broth, read-out: Antibacterial Activity (MIC)
Procedure, shortened: (§1)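 Two-fold serial compound dilutions in Mueller Hinton broth were inoculated with 10^6 CFU/ml of each standard strain. Plates were incubated at 37 °C for 18–20 h to give the minimal inhibitory concentration.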

[2] = tested on: Staphylococcus aureus ATCC 65389; experiment: MIC, two-fold dilution method, Staphylococcus aureus ATCC 65389; conditions: 10^6 CFU per ml, 37° C., 18 to 20 hours; for Antibacterial Activity (MIC): Muller Hinton Broth; for MIC: ATCC65389, Muller Hinton Broth, read-out: Antibacterial Activity (MIC)
Procedure, shortened: as §1

[3] = tested on: Staphylococcus epidermidis ATCC 12228; experiment: MIC, two-fold dilution method, Staphylococcus epidermidis ATCC 12228; conditions: 10^6 CFU per ml, 37° C., 18 to 20 hours; for Antibacterial Activity (MIC): Muller Hinton Broth; for MIC: ATCC12228, Muller Hinton Broth, read-out: Antibacterial Activity (MIC)
Procedure, shortened: as §1

[4] = tested on: Streptococcus faecalis ATCC 10541; experiment: MIC, two-fold dilution method, Streptococcus faecalis ATCC 10541; conditions: 10^6 CFU per ml, 37° C., 18 to 20 hours; for Antibacterial Activity (MIC): Muller Hinton Broth; for MIC: Enterococcus faecalis, ATCC10541, Muller Hinton Broth, read-out: Antibacterial Activity (MIC)
Procedure, shortened: as §1

[5] = tested on: Pseudomonas aeurginosa NCTC 10490; experiment: MIC, two-fold dilution method, Pseudomonas aeurginosa NCTC 10490; conditions: 10^6 CFU per ml, 37° C., 18 to 20 hours; for Antibacterial Activity (MIC): Muller Hinton Broth; for MIC: NCTC10490, Muller Hinton Broth, read-out: Antibacterial Activity (MIC)
Procedure, shortened: as §1

[6] = tested on: Esherichia coli ATCC 25922; experiment: MIC, two-fold dilution method, Esherichia coli ATCC 25922; conditions: Muller Hinton Broth, 10^6 CFU per ml, 37° C., 18 to 20 hours; for MIC: read-out: Antibacterial Activity (MIC)
Procedure, shortened: as §1

[7] = tested on: Klebsiella pneumoniae ATCC 10031; experiment: MIC, two-fold dilution method, Klebsiella pneumoniae ATCC 10031; conditions: 10^6 CFU per ml, 37° C., 18 to 20 hours; for Antibacterial Activity (MIC): Muller Hinton Broth; for MIC: ATCC10031, Muller Hinton Broth, read-out: Antibacterial Activity (MIC)
Procedure, shortened: as §1

Row | Antibacterial Activity (MIC) [1] [µg/mL] | Antibacterial Activity (MIC) [2] [µg/mL] | Antibacterial Activity (MIC) [3] [µg/mL] | Antibacterial Activity (MIC) [4] [µg/mL] | Antibacterial Activity (MIC) [5] [µg/mL] | Antibacterial Activity (MIC) [6] [µg/mL] | Antibacterial Activity (MIC) [7] [µg/mL] | MIC [1] [µg/mL] | MIC [2] [µg/mL] | MIC [3] [µg/mL] | MIC [4] [µg/mL] | MIC [5] [µg/mL] | MIC [6] [µg/mL] | MIC [7] [µg/mL] | Structure (SMILES)
1 | 0.39 | 3.13 | 1.56 | 0.78 | 1.56 | 0.78 | 1.56 | – | – | – | – | – | – | – | C#CCO/N=C(\C(=O)NC1C(=O)N2C(C(=O)[O-])=C(CSc3cc[n+](CC=C)c4cc(N5CCNCC5C)c(F)cc34)CS[C@H]12)c1csc(N)n1 (stereo partly drawn) [Compound I-52, 7-[(Z)-2-(2-aminothiazol-4-yl)-2-(propargyloxyimino)acetamido]-3-[1-allyl-6-fluoro-7-(2-methylpiperazinyl)quinolinium-4-yl]thiomethyl-3-cephem-4-carboxylate]
2 | – | – | – | – | – | – | – | 0.78 (≈ 1.03 µM) | 6.25 (≈ 8.24 µM) | 3.13 (≈ 4.12 µM) | 1.56 (≈ 2.06 µM) | 3.13 (≈ 4.12 µM) | 6.25 (≈ 8.24 µM) | 3.13 (≈ 4.12 µM) | CN1CCN(c2cc3c(cc2F)c(SCC2=C(C(=O)[O-])N4C(=O)C(NC(=O)/C(=N\OC(C)(C)C(=O)O)c5csc(N)n5)C4SC2)cc[n+]3C)CC1 (stereo not drawn) [Compound I-54, 7-[(Z)-2-(2-aminothiazol-4-yl)-2-(2-carboxyprop-2-oxyimino)acetamido]-3-[1-methyl-6-fluoro-7-(N-methylpiperazinyl)quinolinium-4-yl]thiomethyl-3-cephem-4-carboxylate]
3 | – | – | – | – | – | – | – | 0.39 (≈ 0.558 µM) | 0.2 (≈ 0.286 µM) | 0.1 (≈ 0.143 µM) | 0.025 (≈ 0.0358 µM) | 6.25 (≈ 8.94 µM) | 3.13 (≈ 4.48 µM) | 0.1 (≈ 0.143 µM) | C=CCO/N=C(\C(=O)NC1C(=O)N2C(C(=O)[O-])=C(CSc3cc[n+](C)c4cc(N5CCNCC5)c(F)cc34)CS[C@H]12)c1csc(N)n1 (stereo partly drawn) [Compound I-21, 7-[(Z)-2-(2-aminothiazol-4-yl)-2-(allyloxyimino)acetamido]-3-(1-methyl-6-fluoro-7-piperazinylquinolinium-4-yl)thiomethyl-3-cephem-4-carboxylate]
4 | – | – | – | – | – | – | – | 0.39 (≈ 0.558 µM) | 1.56 (≈ 2.23 µM) | 1.56 (≈ 2.23 µM) | 0.78 (≈ 1.12 µM) | 1.56 (≈ 2.23 µM) | 3.13 (≈ 4.48 µM) | 0.78 (≈ 1.12 µM) | C=CC[n+]1ccc(SCC2=C(C(=O)[O-])N3C(=O)C(NC(=O)/C(=N\OC)c4csc(N)n4)[C@H]3SC2)c2cc(F)c(N3CCNCC3)cc21 (stereo partly drawn) [Compound I-13, 7-[(Z)-2-(2-aminothiazol-4-yl)-2-(methoxyimino)acetamido]-3-(1-allyl-6-fluoro-7-piperazinylquinolinium-4-yl)thiomethyl-3-cephem-4-carboxylate]

Second part, the compound before the results:

Row | Structure (SMILES) | Antibacterial Activity (MIC) [1] [µg/mL] | Antibacterial Activity (MIC) [2] [µg/mL] | Antibacterial Activity (MIC) [3] [µg/mL] | Antibacterial Activity (MIC) [4] [µg/mL] | Antibacterial Activity (MIC) [5] [µg/mL] | Antibacterial Activity (MIC) [6] [µg/mL] | Antibacterial Activity (MIC) [7] [µg/mL] | MIC [1] [µg/mL] | MIC [2] [µg/mL] | MIC [3] [µg/mL] | MIC [4] [µg/mL] | MIC [5] [µg/mL] | MIC [6] [µg/mL] | MIC [7] [µg/mL]
5 | CC(C)(O/N=C(\C(=O)NC1C(=O)N2C(C(=O)[O-])=C(CSc3cc[n+](C4CC4)c4cc(N5CCNCC5)c(F)cc34)CS[C@H]12)c1csc(N)n1)C(=O)O (stereo partly drawn) [Compound I-57, 7-[(Z)-2-(2-aminothiazol-4-yl)-2-(2-carboxyprop-2-oxyimino)acetamido]-3-(1-cyclopropyl-6-fluoro-7-piperazinylquinolinium-4-yl)thiomethyl-3-cephem-4-carboxylate] | – | – | – | – | – | – | – | 0.78 (≈ 1.01 µM) | 6.25 (≈ 8.11 µM) | 6.25 (≈ 8.11 µM) | 1.56 (≈ 2.02 µM) | 0.78 (≈ 1.01 µM) | 0.78 (≈ 1.01 µM) | 0.39 (≈ 0.506 µM)
6 | C=CCO/N=C(\C(=O)NC1C(=O)N2C(C(=O)[O-])=C(CSc3cc[n+](C)c4cc(N5CCN(CC)CC5)c(F)cc34)CSC12)c1csc(N)n1 (stereo not drawn) [Compound I-23, 7-[(Z)-2-(2-aminothiazol-4-yl)-2-(allyloxyimino)acetamido]-3-[1-methyl-6-fluoro-7-(1-ethylpiperazinyl)quinolinium-4-yl]thiomethyl-3-cephem-4-carboxylate] | – | – | – | – | – | – | – | 0.2 (≈ 0.275 µM) | 0.1 (≈ 0.138 µM) | 0.1 (≈ 0.138 µM) | 0.2 (≈ 0.275 µM) | 1.56 (≈ 2.15 µM) | 1.56 (≈ 2.15 µM) | 0.2 (≈ 0.275 µM)
7 | C=CCO/N=C(\C(=O)NC1C(=O)N2C(C(=O)[O-])=C(CSc3cc[n+](CC)c4cc(N5CCNCC5C)c(F)cc34)CS[C@H]12)c1csc(N)n1 (stereo partly drawn) [Compound I-32, 7-[(Z)-2-(2-aminothiazol-4-yl)-2-(allyloxyimino)acetamido]-3-[1-ethyl-6-fluoro-7-(2-methylpiperazinyl)quinolinium-4-yl]thiomethyl-3-cephem-4-carboxylate] | 0.39 | 0.39 | 0.78 | 0.39 | 1.56 | 0.78 | 0.39 | – | – | – | – | – | – | –
8 | CCN1CCN(c2cc3c(cc2F)c(SCC2=C(C(=O)[O-])N4C(=O)C(NC(=O)/C(=N\OC)c5csc(N)n5)C4SC2)cc[n+]3C)CC1 (stereo not drawn) [Compound I-3, 7-[(Z)-2-(2-aminothiazol-4-yl)-2-(methoxyimino)acetamido]-3-[1-methyl-6-fluoro-7-(1-ethylpiperazinyl)quinolinium-4-yl]thiomethyl-3-cephem-4-carboxylate] | – | – | – | – | – | – | – | 0.2 (≈ 0.285 µM) | 0.05 (≈ 0.0713 µM) | 0.1 (≈ 0.143 µM) | 0.025 (≈ 0.0357 µM) | 0.78 (≈ 1.11 µM) | 0.78 (≈ 1.11 µM) | 0.1 (≈ 0.143 µM)
9 | C=CC[n+]1ccc(SCC2=C(C(=O)[O-])N3C(=O)C(NC(=O)/C(=N\OC(C)(C)C(=O)O)c4csc(N)n4)[C@H]3SC2)c2cc(F)c(N3CCNCC3C)cc21 (stereo partly drawn) [Compound I-64, 7-[(Z)-2-(2-aminothiazol-4-yl)-2-(2-carboxyprop-2-oxyimino)acetamido]-3-[1-allyl-6-fluoro-7-(2-methylpiperazinyl)quinolinium-4-yl]thiomethyl-3-cephem-4-carboxylate] | 1.56 | 3.13 | 1.56 | 0.39 | 3.13 | 1.56 | 1.56 | – | – | – | – | – | – | –
10 | C#CCO/N=C(\C(=O)NC1C(=O)N2C(C(=O)[O-])=C(CSc3cc[n+](C4CC4)c4cc(N5CCNCC5)c(F)cc34)CS[C@H]12)c1csc(N)n1 (stereo partly drawn) [Compound I-41, 7-[(Z)-2-(2-aminothiazol-4-yl)-2-(propargyloxyimino)acetamido]-3-(1-cyclopropyl-6-fluoro-7-piperazinylquinolinium-4-yl)thiomethyl-3-cephem-4-carboxylate] | – | – | – | – | – | – | – | 0.2 (≈ 0.277 µM) | 0.78 (≈ 1.08 µM) | 0.78 (≈ 1.08 µM) | 0.39 (≈ 0.54 µM) | 3.13 (≈ 4.33 µM) | 3.13 (≈ 4.33 µM) | 6.25 (≈ 8.65 µM)
11 | C#CCO/N=C(\C(=O)NC1C(=O)N2C(C(=O)[O-])=C(CSc3cc[n+](CC=C)c4cc(N5CCNCC5)c(F)cc34)CS[C@H]12)c1csc(N)n1 (stereo partly drawn) [Compound I-49, 7-[(Z)-2-(2-aminothiazol-4-yl)-2-(propargyloxyimino)acetamido]-3-(1-allyl-6-fluoro-7-piperazinylquinolinium-4-yl)thiomethyl-3-cephem-4-carboxylate] | – | – | – | – | – | – | – | 0.39 (≈ 0.54 µM) | 1.56 (≈ 2.16 µM) | 1.56 (≈ 2.16 µM) | 0.78 (≈ 1.08 µM) | 1.56 (≈ 2.16 µM) | 1.56 (≈ 2.16 µM) | 1.56 (≈ 2.16 µM)
12 | C=CCO/N=C(\C(=O)NC1C(=O)N2C(C(=O)[O-])=C(CSc3cc[n+](C4CC4)c4cc(N5CCN(C)CC5)c(F)cc34)CSC12)c1csc(N)n1 (stereo not drawn) [Compound I-26, 7-[(Z)-2-(2-aminothiazol-4-yl)-2-(allyloxyimino)acetamido]-3-[1-cyclopropyl-6-fluoro-7-(N-methylpiperazinyl)quinolinium-4-yl]thiomethyl-3-cephem-4-carboxylate] | – | – | – | – | – | – | – | 0.1 (≈ 0.135 µM) | 0.39 (≈ 0.528 µM) | 1.56 (≈ 2.11 µM) | 0.2 (≈ 0.271 µM) | 0.39 (≈ 0.528 µM) | 6.25 (≈ 8.46 µM) | 0.2 (≈ 0.271 µM)
